Source: patent publication US20040023884A1, “Biologically active peptides from functional domains of bactericidal/permeability-increasing protein and uses thereof” (priority 1993, published 2004)
Ends that are not written are not given here.

Legend:
[1] = system: rough mutant E. coli J5 bacteria; test: Radial diffusion bactericidal assay, E. coli J5; format: cell-based; details: radial diffusion; for bactericidal activity (in words): E. coli J5; for pmol added to well to achieve a 30 mm^2 bactericidal zone, E. coli J5: PROBIT analysis, E. coli J5 (rough)
Outline: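 Log-phase bacteria, washed in 10 mM sodium phosphate pH 7.4, were seeded at 4×10^6 CFU/mL in underlayer agarose. BPI fragments (5 or 10 μL) went into 3 mm wells for 3 h at 37° C., then overlayer agarose was added. After overnight 37° C. incubation, clearing zones were measured by micrometer.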

[2] = 3H-heparin binding assay (affinity and capacity); details: for Heparin Capacity: heparin bound at saturation; for Kd: read-out: Heparin Affinity
Outline: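 Bound 3H-heparin was counted by liquid scintillation after 1 h incubation at 4 °C with fragments immobilised on PVDF-bottomed wells, then washing in blocking buffer. Signal was corrected for BSA-related background, and varying amounts of rBPI23 were used as positive control.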

Staphylococcus aureus = test: Radial diffusion bactericidal assay, Staphylococcus aureus; format: cell-based; details: radial diffusion; PROBIT analysis; S. aureus
[3] = system: E. coli 0111:B4 (smooth) bacteria; test: Radial diffusion bactericidal assay, E. coli 0111:B4; format: cell-based; details: radial diffusion; PROBIT analysis; E. coli O111:B4 (smooth)
[4] = system: zymosan-stimulated NO production by RAW 264.7 cells; test: Zymosan-stimulated NO production by RAW 264.7 cells; format: cell-based, mouse
Procedure: (§1) An additional LPS neutralization screening assay for BPI functional domain peptides was developed using an assay for NO production in mouse cells treated with LPS (see Lorsbach et al., 1993, J. Biol. Chem. 268: 1908-1913). In this assay, mouse RAW 264.7 cells (ATCC Accession No. TIB71) were treated with bacterial LPS. The cells were incubated in 96-well plates and stimulated for 2 hours with E. coli 0113 LPS or zymosan, in the presence or absence of _-interferon, rLBP, fetal bovine serum (FBS) or normal human serum (NHS), or rBPI21Δcys. After this incubation, the cells were washed with fresh media and incubated overnight in media containing 10% FCS. The NO released from the cells accumulated in the media and spontaneously converted to nitrite. This nitrite was assayed in situ by the Griess reaction, as follows. The nitrite was reacted with the primary amine of an added sulfanilamide and formed a diazonium salt. This salt was then reacted with added naphthylethylenediamine to form a red azo-dyc. The Griess reaction was performed at room temperature in about 10 minutes. The amount of produced NO was estimated from a standard curve of Griess reaction products determined spectrophotometrically as Absorbance at a wavelength of 550 nm.

[5] = In vitro heparin-mediated lengthening of APTT / clotting time of heparinized plasma; format: biochemical, human; details: FIG. 12g
Procedure: In vitro, the effect of BPI combination functional domain peptides was determined on heparin-mediated lengthening of activated partial […] (APTT). The APTT is lengthened by the presence of endogenous or exogenous inhibitors of thrombin formation, such as therapeutically administered heparin. Thus, agents which neutralize the anti-coagulant effects of heparin will reduce the APTT measured by the test. Citrated human plasma (200 μL) was incubated for 1 minute at 37° C. with either 15 μL of diluent (0.15 M NaCl, 0.1 M Tris-HCl, pH 7.4) or 15 μL of the diluent also containing 25 μg/mL heparin (187 units/mg). Various concentrations (from 0.0 to 56 μg/mL) of rBPI23, rBPI21Δcys, or BPI combination peptides BPI.29 (the DIII homodimer) and BPI.30 (heterodimer DII+DIII) in a volume of 15 μL were added, followed immediately by 100 μL of thrombin reagent (Catalog No. 845-4, Sigma Chemical Co., St. Louis. MO). Clotting time ([…]) was measured using a BBL Fibrometer (Becton Dickenson Microbiology Systems, Cockeysville, Md.). […] FIG. 12e illustrates the results obtained with BPI.30 on a non-log scale.

RAW 264.7 cells = test: LPS neutralization cellular proliferation assay, RAW 264.7 cells; format: cell-based, mouse
Outline: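 Mouse RAW 264.7 cells were primed 24 h with 50U/mL mouse γ-interferon, then exposed about 15 h to E. coli O113 LPS in serum-free RPMI with or without BPI peptides at 25 ng/mL–50 μg/mL. Proliferation was quantified by [^3H]-thymidine uptake, 1 μCi/well, added at 5 h.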

[6] = LPS binding by tryptophan fluorescence quenching; details: for Kd: Stern-Volmer plots
Text: (§2) The naturally-occurring amino acid tryptophan can emit light (i.e., it fluoresces) having a wavelength between 300 and 400 nm after excitation with light having a wavelength of between about 280 nm and 290 nm, preferably 285 nm. The amount of emitted light produced by such fluorescence is known to be affected by the local environment, including pH and buffer conditions, as well as binding interactions between proteins and other molecules. Some BPI functional domain peptides derived from domains II and III contain tryptophan residues, and tryptophan fluorescence was used to assay binding interactions between the BPI functional domain peptides of the invention and LPS or heparin.
(§3) Tryptophan fluorescence of the BPI functional domain peptides of the invention was determined in the presence or absence of LPS or heparin using a SPEX Fluorolog fluorimeter. Samples were excited with 285 nm light using a 0.25 nm slitwidth. Emission wavelengths were scanned between 300-400 nm using a 1.25 nm slitwidth. Data were accumulated as the average of three determinations performed over an approximately 5 min time span. Samples were maintained at 25° C. or 37° C. during the course of the experiments using a circulating water bath. Crab endotoxin binding protein (CEBP), a protein wherein the intrinsic fluorescence of tryptophan residues is affected by binding to LPS, was used as a positive control. (See Wainwright et al., 1990, Cellular and Molecular Aspects of Endotoxin Reactions, Nowotny et al., eds., Elsevier Science Publishing B.V., The Netherlands, pp. 315-325).
(§4) Kd values were determined by Scatchard-type Stern-Volmer plots of the quenching data as the negative inverse of the slope of such plots. Comparing the data for BPI.10, BPI.46 and BPI.47, it is seen that as the Kd decreased (indicating an increase in avidity for LPS), the percent fluorescence quenching increased. The differences between these peptides include replacement of basic and polar amino acid residues with non-polar residues in […] as compared with BPI.10. In contrast, as the Kd of heparin binding decreased, a corresponding increase in the percentage of fluorescence quenching was not detected.

[7] = Heparin binding by tryptophan fluorescence quenching; details: for Kd: Stern-Volmer plots
Text: as §2, §3, §4

[8] = system: LPS-stimulated NO production by RAW 264.7 cells; test: LPS-stimulated NO production by RAW 264.7 cells; format: cell-based, mouse
Procedure: as §1

[9] = Lipid A binding competition with [125I]-rLBP; details: for IC50: read-out: IC50 (inhibition of Lipid A binding of radiolabeled rLBP)
Procedure: A second binding assay was developed, wherein radiolabeled recombinant LPS binding protein ([^125I]-rLBP) was used instead of radiolabeled rBPI23 in competition experiments with BPI functional domain peptides BPI.2, BPI.3, BPI.4, BPI.5, BPI.7, BPI.13, BPI.14, BPI.29, BPI.30 and BPI.48, rBPI, rBPI21Δcys, and rLBP25 were included in these assays as controls. In these experiments, Lipid A was adsorbed to the wells at a concentration of 0.7 μg/mL in methanol. Incubation of radiolabeled rLBP (a total of 650,000 cpm and a specific activity of 3.45 μCi/μg) was performed for 2.5 hr at 37° C. in the presence of BPI peptides in a series of increasing concentrations. IC50 values (i.e., the concentration at which Lipid A binding of radiolabeled rLBP25 is inhibited to one half the value achieved in the absence of the peptide) are shown in accompanying Table XI.

Molecule | bactericidal activity (in words) [1] | pmol added to well to achieve a 30 mm^2 bactericidal zone, E. coli J5 [1] | heparin binding capacity (in words) [2] | Heparin Capacity [2] | Kd [2] | pmol added to well to achieve a 30 mm^2 bactericidal zone, S. aureus (Staphylococcus aureus) | pmol added to well to achieve a 30 mm^2 bactericidal zone, E. coli O111:B4 [3] | inhibition of zymosan-stimulated NO production (in words) [4] | effect on the clotting time of heparinized blood (in words) [5] | EC50 (peptide concentration at which the growth inhibitory effect of LPS was reversed by 50%) (RAW 264.7 cells) | IC50 (peptide concentration at which RAW cell growth was inhibited by 50%) (RAW 264.7 cells) | Quenching LPS [6] | Kd [6] | Quenching Heparin [7] | Kd [7] | inhibition of LPS-stimulated NO production (in words) [8] | IC50 (inhibition of Lipid A binding of radiolabeled rLBP) [9] | IC50 [9]
GTAALQKELKRIKIPDYSDSFKIKHLGKGH [BPI.14] | little or no bactericidal activity | b (no detectable activity up to 5 μg/well) | low heparin binding capacity | 119.3 ng | 396 nM | b (no detectable activity up to 5 μg/well) | b (no detectable activity up to 5 μg/well) | not inhibited | less of a decrease in clotting times |  |  |  |  |  |  |  |  | 
KWKAQKRFLKKWKAAARFLK [BPI.47] | highly bactericidal | 97.73 pmol | extremely high heparin capacity | 576.4 ng | 1910 nM | 41,213.59 pmol | 576.74 pmol |  |  | 0.9 ± 0.3 µg/mL | 9.8 ± 0.1 µg/mL | 41% | 115 nM | 47% | 2200 nM |  |  | 
LQKELKRIKIPDYSDSFKIKHL [BPI.4] | little or no bactericidal activity | b (no detectable activity up to 5 μg/well) | low heparin binding capacity | 80.8 ng | 336 nM | b (no detectable activity up to 5 μg/well) | b (no detectable activity up to 5 μg/well) | not inhibited | less of a decrease in clotting times |  |  |  |  |  |  |  |  | 
BPI 73 (IKISGKWKAQFRFLK) |  |  |  |  |  |  |  |  |  |  |  | 47% | 66 nM | 19% | 700 nM |  |  | 
rBPI: recombinant BPI holoprotein (SEQ ID NO:69) (protein) MRENMARGPCNAPRWVSLMVLVAIGTAVTAAVNPGVVVRISQKGLDYASQQGTAALQKELKRIKIPDYSDSFKIKHLGKGHYSFYSMDIREFQLPSSQISMVPNVGLKFSISNANIKISGKWKAQKRFLKMSGNFDLSIEGMSISADLKLGSNPTSGKPTITCSSCSSHINSVHVHISKSKVGWLIQLFHKKIESALRNKMNSQVCEKVTNSVSSKLQPYFQTLPVMTKIDSVAGINYGLVAPPATTAETLDVQMKGEFYSENHHNPPPFAPPVMEFPAAHDRMVYLGLSDYFFNTAGLVYQEAGVLKMTLRDDMIPKESKFRLTTKFFGTFLPEVAKKFPNMKIQIHVSASTPPHLSVQPTGLTFYPAVDVQAFAVLPNSSLASLFLIGMHTTGSMEVSAESNRLVGELKLDRLLLELKHSNIGPFPVELLQDIMNYIVPILVLPRVNEKLQKGFPLPTPARVQLYNVVLQPHQNFLLFGADVVYK |  |  |  |  |  |  |  | no significant inhibition | less of a decrease in clotting times |  |  |  |  |  |  | inhibited in a concentration-dependent manner | 0.65 µg/mL | 13 nM
rLBP25: LBP amino-terminal fragment, first 197 amino acids of lipopolysaccharide binding protein (protein) MGALARALPSILLALLLTSTPEALGANPGLVARITDKGLQYAAQEGLLALQSELLRITLPDFTGDLRIPHVGRGRYEFHSLNIHSCELLHSALRPVPGQGLSLSISDSSIRVQGRWKVRKSFFKLQGSFDVSVKGISISVNLLLGSESSGRPTVTASSCSSDIADVEVDMSGDLGWLLNLFHNQIESKFQKVLESRICEMIQKSVSSDLQPYLQTLPVTTEIDSFADIDYSLVEAPRATAQMLEVMFKGEIFHRNHRSPVTLLAAVMSLPEEHNKMVYFAISDYVFNTASLVYHEEGYLNFSITDEMIPPDSNIRLTTKSFRPFVPRLARLYPNMNLELQGSVPSAPLLNFSPGNLSVDPYMEIDAFVLLPSSSKEPVFRLSVATNVSATLTFNTSKITGFLKPGKVKVELKESKVGLFNAELLEALLNYYILNTFYPKFNDKLAEGFPLPLLKRVQLYDLGLQIHKDFLFLGANVQYMRV |  |  |  |  |  |  |  | No inhibition | less of a decrease in clotting times |  |  |  |  |  |  | inhibited in a concentration-dependent manner | 15 µg/mL | 600 nM
